Some results are limits rather than exact numbers.

Common to all, as to type: cell-based
The subject of test [1] is P. falciparum. Description: Red cell reinvasion at the beginning of the second parasite cycle (light microscopy). The procedure: A study was made of red cells from cultures involving various dosage levels harvested at the beginning of the second parasite cycle, when young rings could be identified in untreated control cultures in order to determine whether or not red cell reinvasion had occurred in the cultures that had been exposed to a chelator. […] However, for the 3-hydroxypyridin-4-one compounds 1 to 6 and 9, young ring parasites were frequently found after incubation at a 25 µmol/l dosage level of the chelator and were always found at a 10 µmol/l dosage level, no significant differences being seen between the different compounds. At 50 µmol/l and 100 µmol/l no evidence of reinvasion was found. Thus, although the 3-hydroxypyridin-4-ones do produce growth inhibition at the lower dosage levels of 10 µmol/l and 25 µmol/l, higher levels than this are required to produce a cytocidal action.

The subject of another test is MEL cells, clone 585. Description: Inhibition of growth of murine erythroleukaemia (MEL) cells, cell counting. Conditions: 50 µmol/l iron binding concentration; after 30 hours; Figure 2. The procedure: MEL cells, clone 585, were grown in suspension culture at 37°C in RPMI 1640 that had been supplemented with 13% v/v foetal calf serum, 25 µl/ml gentamicin, 1.9 mM glutamine and 2% diaminopurine as described by Peto et al in Br. J. Haematol., 1983, 54, 623. The cultures were maintained in an atmosphere containing 5% carbon dioxide and passaged every 3-4 days at a seeding concentration of 1-2 x 10⁴/ml to ensure that the cells were continually in logarithmic growth phase. Under these conditions, the doubling time for cell growth was 30-36 hours.
10 ml volumes of cell suspension were incubated in 50 ml flasks with each of the ten chelators identified in the Table at a 50 µmol/l iron binding concentration, controls being employed which contained no chelator. 400 µl aliquots were removed in duplicate for growth assessment at 24 hour intervals over the next four days. The experiment was repeated on three separate occasions, the initial cell concentration in each case being 2-3 x 10⁴ cells/ml. Cell growth was assessed both by examination of cultures using light microscopy and by cell counting. At various times throughout each experiment, 400 µl culture was added to 19.6 ml Isoton and the number of particles counted using a Coulter Counter ZN set at threshold 20 and attenuation 0.4
The effect of the different chelators on growth of the MEL cells after 30 hours was compared with the effect produced after a similar time by the same chelators at a 50 µmol/l iron binding concentration using the procedure described in Example 2(A). The results are illustrated in Figure 2. It will be seen that the compounds 2, 3, 4, 5, 6, 9 and 10 inhibited growth of MEL cells and of P. falciparum, the minimum growth inhibition being 80% and 70% respectively. […] When these two groups of chelators were examined together a close linear correlation (r = 0.978) was found between the degree of growth inhibition produced in both types of cell for each chelator studied. The compound 1 was distinguished from all of the other chelators in being the only one to have no significant inhibitory effect on the growth of MEL cells (<10%) whilst at the same time producing a substantial inhibitory effect on the growth of P. falciparum (>75%).

In test [2] the test system is P. falciparum. Description: Inhibition of growth of P. falciparum in red cell culture (tritiated hypoxanthine uptake, continuous exposure to chelator). The method, then:
(A) An uncloned strain of P. falciparum, ITO4, was grown on blood group O red cells using a modification of the method described by Trager et al in Science, 1976, […], 673. An atmopshere consisting of 1% oxygen, 3% carbon dioxide and 96% nitrogen was maintained throughout the experiments. Red cells were suspended at a hematocrit of 3% in RPMI 1640 that had been supplemented with 10% v/v human serum, 2 g/l glucose, 4 mM NaOH, 25 µg/ml gentamicin, 1.9 mM glutamine and 25 mM HEPES to form complete medium. For experimental purposes the red cells were then further diluted with the same medium to a final hematocrit of 1.5%. Synchronised parasite cultures were obtained using a combination of sorbitol lysis and gelatin flotation, as described respectively by Jensen et al in Am. J. Trop. Med. Hyg., 1978, 27, 1274 and Lambros et al in J. Parasitol., 1979, 65, 418, thus ensuring that only young ring forms remained. The starting parasitemia in each experiment was between 0.1 and 0.5%.
A red cell suspension containing only recently synchronised ring parasites was treated with 0.2 µCi of tritiated hypoxanthine per 100 µl of red cell suspension and one of ten chelating agents as identified in the Table was added in complete medium to the suspension in an amount such as to produce an iron binding concentration of 100 µmol of iron per litre (all of the chelators combine with iron in a ratio of 3 moles of chelator:1 mole of iron apart from the chelator number 10, desferrioxamine, which combines in a 1:1 molar ratio). The test cultures were immediately dispersed in 200 µl aliquots into 96 well microculture plates. Each chelator was tested in three or more wells and the whole experiment was carried out at least twice for each chelator. Control cultures were used in each experiment which contained no iron chelator.
The growth of the P. falciparum parasites was assessed both by light microscopy examination of thin films that had been stained with Giemsa and through measurement of tritiated hypoxanthine uptake, the cell cultures being harvested onto glass fibre filters and radioactivity, in terms of beta emission from each well, being measured in a flat bed liquid scintillation counter as described by Potter et al in Phys. Med. Biol., 1986, 31(4), 361.
The chelators tested consisted of 1-(2′-carboxyethyl)-3-hydroxy-2-methylpyridin-4-one (R₁ = CH₂CH₂CO₂H, R₂ = CH₃, R₃ = R₄ = H; compound 1) and, for the purposes of comparison with this chelator, nine other chelators not of formula (I) as defined hereinbefore, of which compounds 2 to 9 are 3-hydroxypyridin-4-ones and compound 10 is desferrioxamine. […] These findings were supported by a morphological examination of red cells sampled from the cultures. […] (B) The effect of using different dosage levels than the 100 µmol/l level used in (A) was studied employing the same procedure but using four dosage levels of 10 µmol/l, 25 µmol/l, 50 µmol/l and […]. Only the eight chelators which produced an inhibitory effect at 100 µmol/l were studied and controls containing no iron chelator were again employed.

In the case of `CC(=O)N(O)CCCCCNC(=O)CCC(=O)N(O)CCCCCNC(=O)CCC(=O)N(O)CCCCCN` [compound 10, Desferrioxamine], the “red cell reinvasion (young ring parasites)” value in the test on P. falciparum [1] (10 µmol/l dosage level) is given as “always found”; in the test with P. falciparum [1] (25 µmol/l dosage level) it was “No evidence was found of reinvasion”; in the test with P. falciparum [1] (50 µmol/l dosage level) it was “No evidence was found of reinvasion”; in the test with P. falciparum [1] (100 µmol/l dosage level), “No evidence was found of reinvasion”. In the test with MEL cells, clone 585, the “growth inhibition of MEL cells” value was at least 80%. Besides, the “growth inhibition of P. falciparum” value with P. falciparum [2] (50 µmol/l iron binding concentration, after 30 hours, Figure 2) is on record as at least 70%. Moreover, in the test on P. falciparum [2] (Plasmodium falciparum, four dosage levels (iron binding concentration), same procedure as (A), read-out: ID50 (the source's name)), the IC50 lay in the range of 10 to 20 µM. Moreover, in the test with P. falciparum [2] (iron binding concentration of 100 µmol of iron per litre, 30 hours, Figure 1), the “percentage inhibition of growth after 30 hours as compared with the controls” value was “more than 65%”.

Values taken from EP0494754A1, “3-hydroxypyridin-4-one derivatives as pharmaceutical compositions” (BRITISH TECHNOLOGY GROUP LTD, priority 1991, dated 1992).
